The values that follow come from patent US8993768B2, “Tropolone compounds for treating or preventing retroviral infection” (The United States of America, as represented by the …, priority 2011, dated 2015).

A word on the CC50: it is the concentration at which the toxic effect on the cells reaches its halfway point. As a reminder, the EC50 is the concentration that produces a half-maximal response. The term IC50 denotes the concentration at which inhibition is half-maximal.

Each structure is given as a SMILES string. Where two headings read alike, the source gives them in different places. Where only a bound is given, the exact number is not on record here.

Data set [1] can be described thus: Compound cytotoxicity in uninfected cells (same assay plate). The format is cell-based. The settings on record: human, uninfected CEM-SS cells; read-out: Virus Replication CC50. The protocol: (§1) All samples were tested in duplicate. The HIV-1 virus strain RF was used to infect CEM-SS cells. Compound cytotoxicity was measured in the same assay plate using uninfected cells. Regression analysis was used to estimate the effective concentration (EC50) as well as the cytotoxic concentration (CC50).

Data set [2] has as its system HIV-1 virus strain RF in CEM-SS cells. The experiment in a line: HIV-1 cytopathicity assay. Conditions: for EC50: read-out: Virus Replication EC50. The format is cell-based. As to the method: This assay was conducted as previously reported (Weislow, O, S., et al., J. Natl. Cancer Inst., 81(8):577-86 (1989)). Samples were dissolved in DMSO at 10 mM and diluted to a final high concentration of 50 μM in the 96-well assay plate, with 2-fold dilutions made to a low concentration of about 0.78 μM. All samples were tested in duplicate. The HIV-1 virus strain RF was used to infect CEM-SS cells. Compound cytotoxicity was measured in the same assay plate using uninfected cells. Regression analysis was used to estimate the effective concentration (EC50) as well as the cytotoxic concentration (CC50).

Data set [3] concerns the target T1, p66^DA/p51 HIV-1 RT (Human immunodeficiency virus type 1 group M subtype B, UniProt P04585, D1136A).
T1 construct: RT is a p66/p51 heterodimer comprised of asymmetrically-organized subunits processed from the 165 kDa gag/pol polyprotein precursor; (His)6; made in house; host or cells: Escherichia coli
In words: DNA-dependent DNA polymerase assay, RNase H-deficient mutant p66DA/p51. The format is biochemical. The settings on record: 20 μM. The protocol: (§2) DNA-dependent DNA synthesis was measured on a fluorescently-labeled duplex DNA prepared by annealing a 33-nt template, 5′-CACTGCTCAAGAAGTTCCAATCCTAAATACATA-3′ (SEQ ID NO: 3), to the 5′-Cy5-labeled primer 5′-ATGTATGGGTATGTATTTAGG-3′ (SEQ ID NO: 4). Polymerization was initiated by adding 1 μl of 2 mM dNTPs to 9 μl of mixture containing 4 ng enzyme, 200 nM substrate, 20 μM α-hydroxytropolones in 10 mM Tris, pH 7.8, 80 mM KCl, 1 mM DTT, 10 mM MgCl2, and 10% DMSO at 37° C. DNA synthesis was quenched with 10 μl of a gel-loading buffer after 10 minutes, and reaction products were analyzed by denaturing polyacrylamide gel electrophoresis and fluorescent imaging.
(§3) In order to examine the specificity of our manicol analogs, their effect on the DNA polymerase activity of wild type p66/p51 HIV-1 RT and RNase H-deficient derivatives was determined. In particular, RNase H-deficient strains p66^EQ/p51 and p66^DA/p51, were tested, which harbor mutations in one of the catalytically-critical amino acids contacted by manicol (E478 and D549, respectively), that would be predicted to interfere with α-hydroxytropolone binding.
(§4) Although crystallographic evidence is presently unavailable, compounds 5 and 10, thus appear capable of occupying a second site on HIV-1 RT.

For data set [4], the target named is T2, HIV-1 RT RNase H (Human immunodeficiency virus type 1 group M subtype B, UniProt P04585).
T2 construct: RT is a p66/p51 heterodimer comprised of asymmetrically-organized subunits processed from the 165 kDa gag/pol polyprotein precursor; (His)6; made in house; host or cells: Escherichia coli
The experiment in a line: Cleavage of the HIV-1 polypurine tract (PPT) primer, PPT/U3 junction. The format is biochemical. Conditions: 20 μM inhibitor. As to the method: FIG. 2A depicts a schematic model of RNA/DNA substrate, indicating the RNase H cleavage site at the PPT/U3 junction (< >). The PPT is indicated by the shaded box. FIG. 2B depicts the quantification of PPT cleavage data. All inhibitors were evaluated at 20 μM.
(§5) IC50 values were determined as previously reported (Budihas, S. R., et al., Nucleic Acids Res., 33(4):1249-56 (2005)), using an 18-nucleotide 3′-flourescein-labeled RNA annealed to a complementary 18-nucleotide 5′-dabsyl-labeled DNA. […] The reaction was initiated by adding 1 μl of 100 mM MgCl2 to 9 μl of mixture containing 4 ng enzyme, 200 nM substrate, 20 μM α-hydroxytropolones in 50 mM Tris, pH 8.0, 80 mM KCl, 2 mM DTT, and 10% DMSO at 37° C., and quenched with 10 μl of a gel-loading buffer after 10 minutes. Hydrolysis products were fractionated by denaturing polyacrylamide gel electrophoresis and visualized by fluorescent imaging (Typhoon Trio+, GE Healthcare, Piscataway, N.J.).
Since the high-throughput RNase H assay examines non-specific, “polymerase-independent” RNase H activity defined by the spatial separation of the DNA polymerase and RNase H active site of HIV-1 RT (Gopalakrishnan, V., et al., Proc. Natl. Acad. Sci. USA, 89(22):10763-7 (1992)), an examination of whether α-hydroxytropolones altered cleavage specificity on a more biologically-relevant substrate, namely the polypurine tract (PPT) primer, which must be processed from the RNA/DNA replication intermediate to initiate (+) strand DNA synthesis.

For data set [5], the target named is T3, p66^EQ/p51 HIV-1 RT (Human immunodeficiency virus type 1 group M subtype B, UniProt P04585, E1065Q).
T3 construct: RT is a p66/p51 heterodimer comprised of asymmetrically-organized subunits processed from the 165 kDa gag/pol polyprotein precursor; (His)6; made in house; host or cells: Escherichia coli
In words: DNA-dependent DNA polymerase assay, RNase H-deficient mutant p66EQ/p51. It counts as biochemical. Conditions: 20 μM. The protocol: as §2, §3, §4

For data set [6], the target named is T4, HIV-1 RNase H (p66/p51 HIV-1 RT) (Human immunodeficiency virus type 1 group M subtype B, UniProt P04585).
T4 construct: RT is a p66/p51 heterodimer comprised of asymmetrically-organized subunits processed from the 165 kDa gag/pol polyprotein precursor; (His)6; made in house; host or cells: Escherichia coli
In words: High throughput RNase H assay on sequence-independent RNA/DNA hybrid. The format is biochemical. Conditions: HIV-1 RNase H enzymatic activity, sequence-independent RNA/DNA hybrid; read-out: In vitro IC50. As to the method: as §5, with “N.J.). […]” for “N.J.).”

Data set [7] has as its system uninfected CEM-SS cells. In words: Compound cytotoxicity in uninfected cells (same assay plate). It counts as cell-based. The protocol:
as §1

Data set [8] concerns the target T4, HIV-1 RNase H (p66/p51 HIV-1 RT). The settings on record: background, previously demonstrated; cited from earlier work.
The test system of data set [9] is HIV-1 virus strain RF in CEM-SS cells. The settings on record: background, previous finding; cited from earlier work.

As for `Cc1cc(O)c(=O)c(O)c2c1CC(C(C)(O)CNc1ccccc1)CC2` (mixture of isomers) [Compound 5, 5,7-Dihydroxy-2-(1-hydroxy-1-methyl-2-phenylamino-ethyl)-9-methyl-1,2,3,4-tetrahydrobenzocyclohepten-6-one], the CC50 in data set [1] came to 31.7 µM. The “protection against the cytopathic effect of the virus (in words)” value (“protection against the cytopathic effect” for short) in data set [2] (HIV-1 RF) is recorded as “showed protection”. For the same molecule, the EC50 in data set [2] (Human immunodeficiency virus 1, CEM-SS, HIV-1 RF) is 7.4 µM. The “effect on DNA-dependent DNA polymerase activity” value is “significantly and consistently inhibited” in data set [3]; “significantly and consistently inhibited” in data set [5]. Besides, the “inhibition of PPT/U3 cleavage (in words)” value in [4] is listed as “more active in blocking PPT/U3 cleavage”. The IC50 in [6] stood at 1.2 µM.

`Cc1cc(O)c(=O)c(O)c2c1CC(C(C)(O)C[S+]([O-])Cc1ccccc1)CC2` (stereo not shown) [Compound 10, 2-(2-Benzylsulfinyl-1-hydroxy-1-methyl-ethyl)-5,7-dihydroxy-9-methyl-1,2,3,4-tetrahydrobenzocyclohepten-6-one] had a CC50 in data set [7] above 50 µM. Besides, in data set [2] (HIV-1 RF), the “protection against the cytopathic effect” value is given as “showed protection” and the EC50 turned out to be 14.5 µM. Moreover, the “effect on DNA-dependent DNA polymerase activity” value in [3] is “significantly and consistently inhibited”. The “inhibition of PPT/U3 cleavage (in words)” value in [4] is on record as “less active”. Further, the “effect on DNA-dependent DNA polymerase activity” value in [5] is “significantly and consistently inhibited”. The IC50 in data set [6] stood at 1.5 µM.

Turning to `C=C(C)[C@H]1CCc2c(c(C)cc(O)c(=O)c2O)C1` [Manicol, 5,7-dihydroxy-2-isopropenyl-9-methyl-1,2,3,4-tetrahydro-benzocyclohepten-6-one, reference compound], in data set [1], the CC50 is 13.6 µM. The “protection against the cytopathic effect” value in data set [2] (HIV-1 RF) was “no protection”. For the same molecule, the concentration giving a half-maximal response (EC50) in data set [2] (Human immunodeficiency virus 1, HIV-1 RF) was found to be 13.6 µM. Also, the “inhibition of RNase H activity of HIV RT in vitro” value in data set [8] was “potently and specifically inhibit”. Further, in data set [9], the “reduction of virus replication in culture” value was “ineffective”.
